Calls of active or inactive are those of the source.
What was measured:
[1] = molecular target: T1, Polyadenylate-binding protein 1 (Homo sapiens, UniProt P11940); experiment: PABP1 MLLE–PAM2 interaction inhibitors, dose response, miRNA deadenylation inhibitor project, biochemical, fluorescence polarization, Cy5-PAM2 peptide, secondary (AID 602260); format: functional; details: read-out: IC50_Mean
[2] = molecular target: T1, Polyadenylate-binding protein 1; experiment: PABP1 MLLE–PAM2 binding inhibitor potency, dose response, biochemical, fluorescence polarization, FITC-PAM2 peptide (AID 602259); format: functional; details: read-out: IC50_Mean
Streptokinase A = molecular target: T2, Streptokinase A (Streptococcus pyogenes serotype M1, UniProt P10520); experiment: S. pyogenes streptokinase expression inhibitors, potency, dose response, plasminogen activation absorbance, OD405 (AID 1914); format: functional, Streptococcus pyogenes M1 GAS;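 also: secreted streptokinase activity via plasminogen activation per viability signal from cell pellet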
T2 sequence (P10520 whole entry): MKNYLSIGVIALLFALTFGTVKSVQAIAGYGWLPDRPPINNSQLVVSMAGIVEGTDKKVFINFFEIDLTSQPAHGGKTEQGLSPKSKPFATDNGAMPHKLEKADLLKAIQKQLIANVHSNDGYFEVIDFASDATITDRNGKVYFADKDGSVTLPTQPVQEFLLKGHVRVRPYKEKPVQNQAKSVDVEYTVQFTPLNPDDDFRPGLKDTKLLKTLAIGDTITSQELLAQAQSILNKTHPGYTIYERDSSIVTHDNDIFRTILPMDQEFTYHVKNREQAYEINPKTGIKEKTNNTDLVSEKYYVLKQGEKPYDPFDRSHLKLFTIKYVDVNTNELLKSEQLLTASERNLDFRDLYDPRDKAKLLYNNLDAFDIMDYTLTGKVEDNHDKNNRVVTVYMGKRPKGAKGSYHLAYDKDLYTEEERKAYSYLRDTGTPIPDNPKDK

[3] = growth suppression of beta-catenin-knockout colon cells, dose response, cell-based, HCT116, human colon tumor (AID 1045); format: functional;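 also: HCT116 colon tumor cells with beta catenin knocked out; cells exposed to compound for 60 hours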
[4] = growth suppression of PTEN-null colon cells, dose response, cell-based, HCT116 PTEN knockout (AID 1047); format: functional;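 also: HCT116 colon tumor cells with PTEN knocked out; cells exposed to compound for 60 hours before readout; potency for loss of cell viability measured by luminescence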
[5] = molecular target: FAD-linked sulfhydryl oxidase ALR (Homo sapiens, UniProt P55789); experiment: inhibitors of human ALR sulfhydryl oxidase, dose response, biochemical, H2O2 detection, luminescence, cherry-pick (AID 493248)
[6] = NIH-3T3 fibroblast cytotoxicity, dose response, cytotoxicity control, cell-based, fluorescence, Alamar Blue, secondary assay (AID 2327); format: functional;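 also: NIH-3T3 mouse fibroblasts cultured with fluconazole at 8 µg/mL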
[7] = C. albicans growth with fluconazole, confirmation, fluorescence, retest (AID 2467); format: functional, cell-based
[8] = molecular target: T3, Calpain-2 catalytic subunit (Sus scrofa, UniProt P43367); experiment: pig calpain II inhibitor potency, dose response, biochemical, fluorogenic peptide substrate (AID 1420); format: functional
T3 sequence (P43367 whole entry): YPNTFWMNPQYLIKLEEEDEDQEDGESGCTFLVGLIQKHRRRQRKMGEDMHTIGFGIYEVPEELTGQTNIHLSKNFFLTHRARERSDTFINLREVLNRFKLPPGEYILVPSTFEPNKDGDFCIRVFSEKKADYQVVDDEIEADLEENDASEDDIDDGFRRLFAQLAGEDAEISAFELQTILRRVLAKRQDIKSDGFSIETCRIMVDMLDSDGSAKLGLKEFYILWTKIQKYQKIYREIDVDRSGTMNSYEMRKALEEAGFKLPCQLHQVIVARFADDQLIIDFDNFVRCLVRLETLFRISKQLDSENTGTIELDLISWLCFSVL

[9] = cytotoxicity toward NIH3T3 fibroblasts, dose response, counter-screen, cell-based, ATP luminescence, mouse fibroblasts (AID 2010); format: functional;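 also: cells exposed to compound for about 90 hours before reading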
[10] = inhibitors of intracellular T. cruzi replication, confirmation, NIH3T3 host cells, beta-gal luminescence (AID 2044); format: functional, cell-based;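 also: intracellular parasites grown in NIH/3T3 mouse fibroblasts as host cells; luminescent beta-galactosidase reporter signal from transgenic T. cruzi replicating inside host cells; inhibitors lower the luminescence signal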
[11] = molecular target: T4, Carboxy-terminal domain RNA polymerase II polypeptide A small phosphatase 1 (Homo sapiens, UniProt Q9GZU7); experiment: inhibitors of CTDSP1, concentration-response testing, biochemical assay, absorbance-based, actives from ultra-high-throughput screening (AID 540297); format: functional
T4 sequence (Q9GZU7 whole entry): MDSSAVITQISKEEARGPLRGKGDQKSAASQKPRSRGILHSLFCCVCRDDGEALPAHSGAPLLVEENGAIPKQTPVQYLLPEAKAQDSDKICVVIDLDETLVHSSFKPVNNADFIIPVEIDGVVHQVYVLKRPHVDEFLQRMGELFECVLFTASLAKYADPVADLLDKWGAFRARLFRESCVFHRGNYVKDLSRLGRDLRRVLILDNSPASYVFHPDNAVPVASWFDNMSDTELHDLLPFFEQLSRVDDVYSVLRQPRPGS

Protein skinhead-1 = molecular target: T5, Protein skinhead-1 (Caenorhabditis elegans, UniProt P34707); format: functional
T5 sequence (P34707 whole entry): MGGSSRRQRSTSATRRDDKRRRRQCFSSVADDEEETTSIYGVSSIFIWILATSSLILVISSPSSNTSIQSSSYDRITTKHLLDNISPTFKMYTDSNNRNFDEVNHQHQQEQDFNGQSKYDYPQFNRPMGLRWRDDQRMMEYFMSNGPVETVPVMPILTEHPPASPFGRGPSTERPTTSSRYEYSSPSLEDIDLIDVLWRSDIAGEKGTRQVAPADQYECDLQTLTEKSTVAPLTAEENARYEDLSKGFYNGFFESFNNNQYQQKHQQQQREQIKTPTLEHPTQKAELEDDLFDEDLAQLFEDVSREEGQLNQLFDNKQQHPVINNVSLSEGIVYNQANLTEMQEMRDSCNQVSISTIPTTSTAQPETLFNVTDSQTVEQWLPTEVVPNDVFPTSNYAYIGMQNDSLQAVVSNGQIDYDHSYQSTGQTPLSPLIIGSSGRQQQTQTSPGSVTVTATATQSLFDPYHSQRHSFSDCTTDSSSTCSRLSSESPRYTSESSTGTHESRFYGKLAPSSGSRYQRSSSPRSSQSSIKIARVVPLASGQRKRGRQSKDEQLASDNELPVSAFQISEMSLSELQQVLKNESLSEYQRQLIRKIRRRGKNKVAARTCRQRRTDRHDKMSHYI

Nonstructural protein 1 = Nonstructural protein 1 (Influenza A virus, UniProt Q194T2); format: functional, Influenza A virus (A/California/07/2009(H1N1))
[12] = HEp-2 cell cytotoxicity, dose response, cytotoxicity control for RSV inhibitor project, HTS (AID 2410); format: functional; details: human respiratory syncytial virus
[13] = Luminescence Cell-Based Dose Confirmation HTS to Identify Activators of 5'UTR Stem-Loop Driven Alpha-Synuclein mRNA Translation in H4 Neuroglioblastoma Cells. [Related pubchem assays: 1829 (Project Summary), 1814 (Primary HTS)]; format: functional
[14] = Luminescence Cell-Based Dose Response HTS to Identify Activators of Luciferase Translation or Activity in H4 […] Cells. [Related pubchem assays: 1829 (Project Summary), 1814 (Primary HTS)]; format: functional
H4 = experiment: Luminescence Cell-Based Dose Response HTS to Identify Activators of 5'UTR Stem-Loop Driven Prion Protein mRNA Translation in H4 Neuroglioblastoma Cells. [Related pubchem assays: 1829 (Project Summary), 1814 (Primary HTS)]; format: functional; details: Homo sapiens
Paired box protein Pax-8 = Paired box protein Pax-8 (Homo sapiens, UniProt Q06710); experiment: inhibitors of PAX8-driven TPO luciferase reporter, dose response, RMG-I cells, cherry-pick (AID 687027); format: functional, cell-based;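 also: luciferase reporter driven by Pax8 target thyroperoxidase promoter measured by SteadyGlo luminescence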
Streptococcus = experiment: Group A Streptococcus viability loss, dose response, counter-screen for streptokinase expression inhibitor project, luminescence, BacTiterGlo (AID 1915); format: functional, organism-based;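 also: potency for reduction of bacterial viability or growth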
[15] = test system: Streptococcus sp. 'group A'; experiment: growth inhibition of control SK(-) GAS strain, dose response, counter-screen for streptokinase expression inhibitor project, luminescence, kanamycin, BacTiterGlo, confirmation (AID 1900); format: functional, organism-based

T1 sequence (P11940 whole entry): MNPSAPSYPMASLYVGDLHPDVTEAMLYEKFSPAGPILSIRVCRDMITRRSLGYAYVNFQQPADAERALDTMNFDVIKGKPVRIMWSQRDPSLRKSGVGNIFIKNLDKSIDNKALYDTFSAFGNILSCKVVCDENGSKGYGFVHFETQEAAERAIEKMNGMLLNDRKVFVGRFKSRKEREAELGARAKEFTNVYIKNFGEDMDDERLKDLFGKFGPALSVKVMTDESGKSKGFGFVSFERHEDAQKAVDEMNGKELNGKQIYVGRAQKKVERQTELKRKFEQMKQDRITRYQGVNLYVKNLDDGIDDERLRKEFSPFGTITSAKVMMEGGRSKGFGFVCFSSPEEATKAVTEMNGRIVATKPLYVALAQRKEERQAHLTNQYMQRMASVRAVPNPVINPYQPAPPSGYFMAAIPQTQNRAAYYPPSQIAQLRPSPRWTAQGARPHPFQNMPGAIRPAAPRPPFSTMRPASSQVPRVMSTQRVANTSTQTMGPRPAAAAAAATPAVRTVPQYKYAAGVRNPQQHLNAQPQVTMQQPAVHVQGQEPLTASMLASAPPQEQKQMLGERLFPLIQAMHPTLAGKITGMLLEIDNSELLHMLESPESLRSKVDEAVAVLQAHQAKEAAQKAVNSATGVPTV
FAD-linked sulfhydryl oxidase ALR, sequence (P55789 whole entry): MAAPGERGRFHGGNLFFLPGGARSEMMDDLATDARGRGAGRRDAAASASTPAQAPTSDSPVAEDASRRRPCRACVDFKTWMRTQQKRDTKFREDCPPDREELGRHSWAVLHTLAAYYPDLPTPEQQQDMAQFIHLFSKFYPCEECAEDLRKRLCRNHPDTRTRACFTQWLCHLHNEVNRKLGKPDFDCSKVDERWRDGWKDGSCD
Paired box protein Pax-8, sequence (Q06710 whole entry): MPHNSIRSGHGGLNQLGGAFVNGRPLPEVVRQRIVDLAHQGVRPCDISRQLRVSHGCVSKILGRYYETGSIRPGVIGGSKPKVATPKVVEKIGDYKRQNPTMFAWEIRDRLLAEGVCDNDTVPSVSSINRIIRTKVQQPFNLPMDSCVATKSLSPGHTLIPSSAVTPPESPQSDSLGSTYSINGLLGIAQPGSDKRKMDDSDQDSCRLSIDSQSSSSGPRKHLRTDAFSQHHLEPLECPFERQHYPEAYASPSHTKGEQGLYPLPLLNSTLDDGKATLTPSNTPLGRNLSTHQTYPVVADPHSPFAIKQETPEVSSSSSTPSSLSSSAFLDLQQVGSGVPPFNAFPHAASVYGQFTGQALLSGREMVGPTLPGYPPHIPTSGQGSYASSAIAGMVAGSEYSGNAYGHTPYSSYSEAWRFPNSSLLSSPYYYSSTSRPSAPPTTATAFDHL
Nonstructural protein 1, sequence (Q194T2 whole entry): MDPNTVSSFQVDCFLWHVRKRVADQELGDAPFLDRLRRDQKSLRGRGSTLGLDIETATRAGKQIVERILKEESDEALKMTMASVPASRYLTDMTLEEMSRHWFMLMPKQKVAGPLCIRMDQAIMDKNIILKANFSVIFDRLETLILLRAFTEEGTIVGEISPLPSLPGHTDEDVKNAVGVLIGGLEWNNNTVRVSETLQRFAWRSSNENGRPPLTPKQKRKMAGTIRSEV

Compound: CCOc1ccc(-n2cc(-c3ccccc3)c3c(=S)[nH]cnc32)cc1
- IC50 [1]: > 66 µM (inactive)
- IC50 [2]: > 66 µM (inactive)
- EC50 (Streptokinase A): > 150 µM (not active)

Compound: CCc1ccc(-c2nc(CSCC(=O)N3CCN(c4ncccn4)CC3)c(C)o2)cc1
- EC50 [3]: 29.8 µM (active)
- EC50 [4]: 53.6 µM (active)

Compound: CSCc1ccc(C(=O)NC(C)c2ccc(-n3ccnc3)cc2)cc1 (configuration not stated)
- AC50 [5]: 1.33 µM (active)

Compound: CCN(CC)C(=O)/C(=C/c1ccc2c(c1)OCO2)NC(=O)c1ccc(Br)cc1
- EC50 [6]: > 150 µM (inactive)
- EC50 [7]: 3.58 µM (active)

Compound: CC1CCc2cc(F)ccc2N1C(=O)CSc1n[nH]c2c3ccccc3nc-2n1 (configuration not stated)
- EC50 [3]: 22.5 µM (active)
- EC50 [4]: 19 µM (active)

Compound: O=C(CC1C(=O)NCCN1Cc1ccc(F)cc1)NCCN1CCCc2ccccc21 (configuration not stated)
- AC50 [5]: 3.16 µM (active)

Compound: COc1ccc([N+](=O)[O-])cc1NC(=O)CSc1ccc2ccccc2c1
- IC50 [8]: 2.92 µM (not active)

Compound: CN(C)c1ccc(/C=C/c2cc[n+](C)cc2)cc1
- EC50 [9]: > 60 µM (not active)
- AC50 [5]: 0.416 µM (active)
- EC50 [10]: 0.723 µM (active)

Compound: CCCCNC(=O)COC(=O)c1c2c(nc3ccccc13)CCC2
- IC50 [11]: 9.63 µM (active)

Compound: CCOc1ccc(-c2nnc(-c3ccccc3)o2)cc1
- IC50 (Protein skinhead-1): > 100 µM (inactive)

Compound: COc1c(Cl)cc(C(=O)Nc2ccccc2-c2ccccc2)cc1Cl
- IC50 [8]: > 50 µM (not active)

Compound: CNC(=O)COC(=O)CNC(=O)c1cc(Cl)cc([N+](=O)[O-])c1
- IC50 [8]: > 50 µM (not active)

Compound: Fc1ccc(CSc2ncnc3ccccc23)cc1
- IC50 (Protein skinhead-1): 31.8 µM (active)

Compound: COc1ccc(S(=O)(=O)NCc2ccc3c(c2)cc(C)n3C)cc1
- IC50 [1]: > 66 µM (inactive)
- IC50 [2]: > 66 µM (inactive)
- IC50 (Nonstructural protein 1): 66.3 µM (active)

Compound: Clc1cccc(CSc2ccc(-c3ccco3)nn2)c1
- CC50 [12]: > 50 µM (active)
- IC50 (Protein skinhead-1): 99.9 µM (inactive)

Compound: O=C(NC1CCCCCC1)C(=S)NCCc1ccccc1
- IC50 [1]: > 66 µM (inactive)
- IC50 [2]: > 66 µM (inactive)

Compound: Cc1cccc(Nc2ncccc2C(=O)NCc2cccs2)c1C
- IC50 [8]: 14.4 µM (not active)

Compound: O=C(C1CCC(=O)N(C2CC2)C1)N1CCN(c2ccc(Cl)cc2)CC1 (configuration not stated)
- AC50 [5]: 15.8 µM (active)

Compound: CC(NC(=O)C(=O)N1CCCCC1)C(c1cccs1)N1CCN(c2ccccc2)CC1 (configuration not stated)
- AC50 [5]: 1.16 µM (active)

Compound: Cc1cc(NC(=O)CSc2nnc(-c3ccncc3)n2-c2ccc(F)cc2)no1
- IC50 (Protein skinhead-1): > 100 µM (inactive)

Compound: CCc1cc2c(=O)n(Cc3ccccc3)c(SC3CCOC3=O)nc2s1 (configuration not stated)
- IC50 [8]: 12.6 µM (not active)

Compound: CCOC(=O)c1c(NC(=O)C2CCCN(S(=O)(=O)c3ccccc3)C2)sc2c1CCCC2 (configuration not stated)
- EC50 [3]: 73.3 µM (active)
- EC50 [4]: 50.9 µM (active)

Compound: COc1ccc(Cl)cc1NC(=O)CSc1ncnc2c1oc1ccccc12
- EC50 [3]: 6.22 µM (active)
- EC50 [4]: 4.25 µM (active)

Compound: c1cnc2c(OCc3nc4ccccc4[nH]3)cccc2c1
- EC50 [13]: 0.396 µM (active)
- EC50 [14]: 7.06 µM (active)
- IC50 [8]: 7.55 µM (not active)
- EC50 (H4): 5.66 µM (active)

Compound: O=C(Nc1ccnc(O)n1)c1sc2ccccc2c1Cl
- IC50 [11]: 16.2 µM (active)

Compound: Cc1ccc(C(=O)N(Cc2ccccc2)C(C)(C)C)cc1C
- IC50 [8]: 16.6 µM (not active)

Compound: CCCOc1ccc(N2C(=O)CC(N(CCc3ccc(OC)cc3)C(=O)c3cccc(F)c3)C2=O)cc1 (configuration not stated)
- IC50 (Protein skinhead-1): > 100 µM (inactive)

Compound: Cc1c(C=O)c2ccccc2n1CC(=O)NC(C)c1ccccc1 (configuration not stated)
- IC50 [8]: > 50 µM (not active)

Compound: Cc1cc(C2=NN=C(NC3CC3)SC2)c(C)n1-c1ccccc1
- EC50 [3]: 19.5 µM (active)
- EC50 [4]: 23.7 µM (active)

Compound: Cc1ccc(-c2nc3ccc(Cl)cc3c(=O)n2O)cc1
- EC50 [6]: > 160 µM (inactive)
- EC50 [7]: 1.58 µM (active)

Compound: CCCCN(CC)CCCN=C(S)Nc1ccc2nc3n(c(=O)c2c1)CCCCC3
- EC50 [9]: > 60 µM (not active)
- IC50 [8]: < 0.4 µM (not active)
- EC50 [10]: 1.29 µM (active)

Compound: O=C1CSC(c2cccc(F)c2)N1c1ccccc1 (configuration not stated)
- AC50 [5]: 1.22 µM (active)

Compound: CCOc1ccccc1NC(=O)Cn1c(=O)oc2cc(Cl)ccc21
- IC50 (Protein skinhead-1): > 100 µM (inactive)

Compound: O=C(COC(=O)CCNS(=O)(=O)c1ccccc1)Nc1ccc(OC(F)F)cc1
- IC50 (Protein skinhead-1): > 100 µM (inactive)

Compound: O=C(N/N=C/c1c[nH]c2ccccc12)c1[nH]c2ccc(Br)cc2c1-c1ccccc1
- AC50 (Paired box protein Pax-8): 3.5 µM (active)
- EC50 [3]: 0.378 µM (active)
- EC50 [4]: 0.412 µM (active)
- EC50 (Streptococcus): 2.22 µM (active)
- EC50 (Streptokinase A): > 150 µM (not active)
- EC50 [15]: 1.29 µM (active)

Compound: Cc1nn(-c2ccccc2)c(N2CCCC2)c1/C=N/Nc1ccc(S(=O)(=O)Nc2ccccc2)cc1[N+](=O)[O-]
- EC50 [3]: 9.37 µM (active)
- EC50 [4]: 6.74 µM (active)

— ChEMBL document CHEMBL1201862, “PubChem BioAssay data set” (2004)
